# Assay results taken from ChEMBL document CHEMBL4342459, “The Race to Bash NASH: Emerging Targets and Drug Development in a Complex Liver Disease” (J Med Chem, 2020).
# Experiments:
# [1] = molecular target: T1, Diacylglycerol O-acyltransferase 2 (Homo sapiens, UniProt Q96PD7); experiment: Inhibition of recombinant FLAG-tagged human DGAT2 expressed in SF9 cells after 1 hr by TopCount assay
# T1 sequence (Q96PD7 whole entry): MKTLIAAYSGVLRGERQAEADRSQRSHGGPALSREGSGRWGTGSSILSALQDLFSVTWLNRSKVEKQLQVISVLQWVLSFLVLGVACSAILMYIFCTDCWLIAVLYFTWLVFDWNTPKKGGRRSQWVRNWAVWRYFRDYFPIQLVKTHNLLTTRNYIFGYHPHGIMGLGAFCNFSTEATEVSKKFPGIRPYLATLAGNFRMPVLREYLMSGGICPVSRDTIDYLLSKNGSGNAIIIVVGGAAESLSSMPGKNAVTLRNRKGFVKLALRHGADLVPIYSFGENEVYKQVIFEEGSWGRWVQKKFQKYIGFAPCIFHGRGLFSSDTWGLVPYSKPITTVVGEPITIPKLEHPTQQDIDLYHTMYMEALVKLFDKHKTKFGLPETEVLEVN
# [2] = molecular target: T2, Diacylglycerol O-acyltransferase 1 (Homo sapiens, UniProt O75907); experiment: Inhibition of recombinant FLAG-tagged human DGAT1 expressed in SF9 cells after 1 hr by TopCount assay
# T2 sequence (O75907 whole entry): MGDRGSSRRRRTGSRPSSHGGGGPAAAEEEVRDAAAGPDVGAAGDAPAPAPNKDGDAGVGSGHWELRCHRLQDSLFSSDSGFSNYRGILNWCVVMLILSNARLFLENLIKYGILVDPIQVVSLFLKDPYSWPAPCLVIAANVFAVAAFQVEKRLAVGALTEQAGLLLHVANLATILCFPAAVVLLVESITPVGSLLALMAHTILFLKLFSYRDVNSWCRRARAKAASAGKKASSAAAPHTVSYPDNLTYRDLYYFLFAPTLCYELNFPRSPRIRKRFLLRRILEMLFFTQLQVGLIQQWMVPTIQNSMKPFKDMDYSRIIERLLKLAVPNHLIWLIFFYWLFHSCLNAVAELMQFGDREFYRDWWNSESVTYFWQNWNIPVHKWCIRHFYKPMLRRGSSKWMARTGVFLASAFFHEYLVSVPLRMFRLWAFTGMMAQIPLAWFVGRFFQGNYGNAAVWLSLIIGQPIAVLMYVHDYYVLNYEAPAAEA
# [3] = Half life in rat; type: ADME; details: in vivo
# [4] = Oral bioavailability in rat; type: ADME, organism-based; details: in vivo
IC50 [1] [µM],IC50 [2] [µM],half-life [3] [h],bioavailability [4] [%],SMILES
0.08,> 300,–,–,Cc1nc(C)c(-c2ccc(C3CCC(CC(=O)O)CC3)cc2)nc1C(N)=O (centres undefined) [AZD-7687]
–,–,3.5,10,CC(C)c1onc(-c2c(Cl)cccc2Cl)c1COc1ccc(/C=C/c2cccc(C(=O)O)c2)c(Cl)c1
